Active and inactive are the calls of the source.
Tests used:
[1] = molecular target: Acylamino-acid-releasing enzyme (Homo sapiens, UniProt P13798); assay: PME-1 inhibitor potency by in-gel ABPP, dose response, selectivity assay for PME-1 inhibitor project, cell lysate, mouse brain cytosol, FP-rhodamine, panel member APEH Assay Panel member description: Inhibition of N-acylaminoacyl-peptide hydrolase (APEH) (anti-target) (AID 2366)
[2] = molecular target: Melanin-concentrating hormone receptor 1 (Homo sapiens, UniProt Q99705); assay: Late-stage fluorescence-based counterscreen for antagonists of the G-protein coupled receptor 7 (GPR7): cell-based dose response assay to identify antagonists of the melanin-concentrating hormone receptor 1 (MCHR1). [Related pubchem assays (depositor defined):AID1861, AID1880, AID1952, AID2148, AID2251, AID2257, AID485339]; format: functional;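 also: stimulated with 30 nM MCH peptide agonist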
[3] = molecular target: T1, Neuropeptides B/W receptor type 1 (Homo sapiens, UniProt P48145); assay: GPR7 antagonist potency, late-stage follow-up, cell-based, fluorescence, dose response (AID 463251); format: functional
T1 sequence (P48145 whole entry): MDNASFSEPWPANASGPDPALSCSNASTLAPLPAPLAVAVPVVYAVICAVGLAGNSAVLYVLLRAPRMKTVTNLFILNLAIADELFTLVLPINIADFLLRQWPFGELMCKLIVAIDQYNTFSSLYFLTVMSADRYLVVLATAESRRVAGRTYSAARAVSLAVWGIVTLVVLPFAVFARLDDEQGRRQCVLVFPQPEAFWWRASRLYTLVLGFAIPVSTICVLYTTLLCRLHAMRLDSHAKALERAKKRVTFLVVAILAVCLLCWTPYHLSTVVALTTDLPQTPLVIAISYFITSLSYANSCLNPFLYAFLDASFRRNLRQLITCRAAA

Caspase-3 = molecular target: T2, Caspase-3 (Homo sapiens, UniProt P42574); assay: procaspase-3 activators, dose response, biochemical, absorbance (AID 489014)
T2 sequence (P42574 whole entry): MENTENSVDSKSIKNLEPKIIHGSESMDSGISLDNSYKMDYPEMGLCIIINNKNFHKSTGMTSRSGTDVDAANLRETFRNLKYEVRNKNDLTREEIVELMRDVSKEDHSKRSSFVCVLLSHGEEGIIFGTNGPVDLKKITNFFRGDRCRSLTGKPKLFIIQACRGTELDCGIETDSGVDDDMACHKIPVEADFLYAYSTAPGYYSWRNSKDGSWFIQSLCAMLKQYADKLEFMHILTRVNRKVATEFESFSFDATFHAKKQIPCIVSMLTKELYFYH

[4] = molecular target: T3, Heat shock factor protein 1 (Mus musculus, UniProt P38532); assay: inhibition of MG132-induced HSE-luciferase signal, confirmation, cell-based, NIH3T3, luminescence, dose retest (AID 2382); format: functional;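 also: NIH3T3 fibroblasts with HSF1-driven luciferase reporter stressed by proteasome inhibitor MG132; luminescence from HSF1-driven luciferase expression after 8 hours of MG132 stress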
T3 sequence (P38532 whole entry): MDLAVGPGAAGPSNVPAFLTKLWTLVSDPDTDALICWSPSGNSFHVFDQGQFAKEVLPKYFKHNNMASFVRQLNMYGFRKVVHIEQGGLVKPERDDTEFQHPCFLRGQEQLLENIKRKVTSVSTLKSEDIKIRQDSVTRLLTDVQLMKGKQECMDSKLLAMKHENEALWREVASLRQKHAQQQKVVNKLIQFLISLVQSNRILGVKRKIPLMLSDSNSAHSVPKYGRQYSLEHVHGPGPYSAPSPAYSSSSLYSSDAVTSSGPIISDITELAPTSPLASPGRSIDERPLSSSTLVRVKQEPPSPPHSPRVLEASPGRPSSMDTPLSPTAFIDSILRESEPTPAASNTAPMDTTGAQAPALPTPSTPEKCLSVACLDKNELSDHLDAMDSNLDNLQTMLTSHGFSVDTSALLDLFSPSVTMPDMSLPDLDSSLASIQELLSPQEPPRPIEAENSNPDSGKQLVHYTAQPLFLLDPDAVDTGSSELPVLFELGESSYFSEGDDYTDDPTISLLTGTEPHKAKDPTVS

Caspase-7 = molecular target: T4, Caspase-7 (Homo sapiens, UniProt P55210); assay: procaspase-7 activators, dose response, counter-screen for procaspase-3 activator project, biochemical, absorbance (AID 489013)
T4 sequence (P55210 whole entry): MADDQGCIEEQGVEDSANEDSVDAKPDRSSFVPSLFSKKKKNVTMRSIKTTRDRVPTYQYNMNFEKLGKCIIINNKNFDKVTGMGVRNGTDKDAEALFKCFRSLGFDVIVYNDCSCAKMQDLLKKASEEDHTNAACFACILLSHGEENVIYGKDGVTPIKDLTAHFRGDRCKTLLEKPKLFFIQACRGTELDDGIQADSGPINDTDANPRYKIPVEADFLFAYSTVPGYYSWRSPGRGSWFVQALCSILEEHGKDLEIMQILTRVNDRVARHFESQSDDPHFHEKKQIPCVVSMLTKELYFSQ

[5] = tested on: Streptococcus sp. 'group A'; assay: growth inhibition of control SK(-) GAS strain, dose response, counter-screen for streptokinase expression inhibitor project, luminescence, kanamycin, BacTiterGlo, confirmation (AID 1900); format: functional, organism-based
Streptokinase A = molecular target: T5, Streptokinase A (Streptococcus pyogenes serotype M1, UniProt P10520); assay: S. pyogenes streptokinase expression inhibitors, potency, dose response, plasminogen activation absorbance, OD405 (AID 1914); format: functional, Streptococcus pyogenes M1 GAS;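 also: secreted streptokinase activity via plasminogen activation per viability signal from cell pellet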
T5 sequence (P10520 whole entry): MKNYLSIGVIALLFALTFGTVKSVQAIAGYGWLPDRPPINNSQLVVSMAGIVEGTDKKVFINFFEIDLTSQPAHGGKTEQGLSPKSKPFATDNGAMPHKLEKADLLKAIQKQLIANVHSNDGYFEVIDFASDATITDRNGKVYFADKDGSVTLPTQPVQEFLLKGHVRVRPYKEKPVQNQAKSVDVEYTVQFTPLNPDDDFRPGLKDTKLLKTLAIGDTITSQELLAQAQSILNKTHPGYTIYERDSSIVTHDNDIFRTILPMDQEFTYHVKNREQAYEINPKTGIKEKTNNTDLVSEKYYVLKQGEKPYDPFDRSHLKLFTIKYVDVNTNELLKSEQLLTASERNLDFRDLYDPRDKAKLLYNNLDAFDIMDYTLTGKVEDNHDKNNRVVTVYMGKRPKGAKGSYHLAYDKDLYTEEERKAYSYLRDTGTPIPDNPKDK

[6] = molecular target: E3 ubiquitin-protein ligase Mdm2 (Homo sapiens, UniProt Q00987); assay: enhancers of MDM2-luciferase reporter signal, concentration-effect titration, project on inhibitors of MDM2 ubiquitin ligase, cellular assay, luminescent readout, 384-well plate format (AID 1394); format: functional;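 also: MDM2 E3 inhibitors raise luminescence so EC50 is for signal enhancement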
Beta-galactosidase = Beta-galactosidase (Escherichia coli, UniProt Q8VNN2); format: functional
[7] = molecular target: T6, Kappa-type opioid receptor (Homo sapiens, UniProt P41145); format: functional
cells [8] = format: functional, cell-based
cells [9] = assay: cells
[10] = inhibitors of intracellular T. cruzi replication, confirmation, NIH3T3 host cells, beta-gal luminescence (AID 2044); format: functional, cell-based;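 also: intracellular parasites grown in NIH/3T3 mouse fibroblasts as host cells; luminescent beta-galactosidase reporter signal from transgenic T. cruzi replicating inside host cells; inhibitors lower the luminescence signal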
[11] = cytotoxicity toward NIH3T3 fibroblasts, dose response, counter-screen, cell-based, ATP luminescence, mouse fibroblasts (AID 2010); format: functional;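 also: cells exposed to compound for about 90 hours before reading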
[12] = molecular target: T6, Kappa-type opioid receptor; format: functional; remark: listed apart in the source
Streptococcus = assay: Group A Streptococcus viability loss, dose response, counter-screen for streptokinase expression inhibitor project, luminescence, BacTiterGlo (AID 1915); format: functional, organism-based;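 also: potency for reduction of bacterial viability or growth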
cells [13] = format: functional, cell-based; remark: listed apart in the source

Sequence of Acylamino-acid-releasing enzyme (P13798 whole entry): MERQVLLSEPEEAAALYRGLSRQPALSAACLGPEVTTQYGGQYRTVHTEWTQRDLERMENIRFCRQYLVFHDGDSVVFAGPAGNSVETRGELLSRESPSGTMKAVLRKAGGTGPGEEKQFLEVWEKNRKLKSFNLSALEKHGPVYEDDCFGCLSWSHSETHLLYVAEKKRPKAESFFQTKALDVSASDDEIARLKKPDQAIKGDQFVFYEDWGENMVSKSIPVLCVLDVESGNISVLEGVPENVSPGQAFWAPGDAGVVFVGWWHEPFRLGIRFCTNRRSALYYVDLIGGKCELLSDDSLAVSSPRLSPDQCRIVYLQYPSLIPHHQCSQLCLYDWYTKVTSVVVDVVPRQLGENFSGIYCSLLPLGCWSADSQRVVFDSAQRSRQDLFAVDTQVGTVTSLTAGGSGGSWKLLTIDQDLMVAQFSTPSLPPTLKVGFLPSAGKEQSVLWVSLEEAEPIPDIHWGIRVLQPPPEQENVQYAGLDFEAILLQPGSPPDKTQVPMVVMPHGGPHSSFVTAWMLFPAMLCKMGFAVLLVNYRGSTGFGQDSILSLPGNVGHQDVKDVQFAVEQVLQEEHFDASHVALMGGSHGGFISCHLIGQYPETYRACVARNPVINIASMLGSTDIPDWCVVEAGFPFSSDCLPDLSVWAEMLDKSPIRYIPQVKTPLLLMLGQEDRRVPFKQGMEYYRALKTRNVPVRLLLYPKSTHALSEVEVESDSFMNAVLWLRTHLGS
T6 sequence (P41145 whole entry): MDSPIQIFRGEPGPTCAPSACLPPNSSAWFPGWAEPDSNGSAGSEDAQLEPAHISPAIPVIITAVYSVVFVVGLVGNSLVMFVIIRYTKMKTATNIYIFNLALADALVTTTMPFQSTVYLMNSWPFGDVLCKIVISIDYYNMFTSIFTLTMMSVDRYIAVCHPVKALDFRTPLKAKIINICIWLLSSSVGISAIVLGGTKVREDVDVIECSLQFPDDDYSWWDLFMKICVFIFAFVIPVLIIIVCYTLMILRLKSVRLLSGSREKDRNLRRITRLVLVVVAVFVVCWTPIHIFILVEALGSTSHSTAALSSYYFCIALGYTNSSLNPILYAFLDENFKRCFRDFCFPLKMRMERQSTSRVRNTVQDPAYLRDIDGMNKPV
Sequence of E3 ubiquitin-protein ligase Mdm2 (Q00987 whole entry): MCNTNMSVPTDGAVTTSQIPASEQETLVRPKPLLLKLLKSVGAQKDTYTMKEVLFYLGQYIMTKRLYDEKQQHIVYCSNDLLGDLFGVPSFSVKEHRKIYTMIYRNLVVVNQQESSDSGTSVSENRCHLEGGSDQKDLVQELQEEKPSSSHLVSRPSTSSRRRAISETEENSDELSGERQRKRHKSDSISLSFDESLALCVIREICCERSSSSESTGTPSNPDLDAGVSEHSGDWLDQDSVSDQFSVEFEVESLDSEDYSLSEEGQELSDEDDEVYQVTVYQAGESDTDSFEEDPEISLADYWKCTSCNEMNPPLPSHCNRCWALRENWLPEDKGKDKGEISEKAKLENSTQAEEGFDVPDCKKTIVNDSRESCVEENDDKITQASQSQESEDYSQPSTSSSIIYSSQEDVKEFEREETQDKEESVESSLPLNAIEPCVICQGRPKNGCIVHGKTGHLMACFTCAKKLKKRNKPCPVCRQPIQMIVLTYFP
Sequence of Melanin-concentrating hormone receptor 1 (Q99705 whole entry): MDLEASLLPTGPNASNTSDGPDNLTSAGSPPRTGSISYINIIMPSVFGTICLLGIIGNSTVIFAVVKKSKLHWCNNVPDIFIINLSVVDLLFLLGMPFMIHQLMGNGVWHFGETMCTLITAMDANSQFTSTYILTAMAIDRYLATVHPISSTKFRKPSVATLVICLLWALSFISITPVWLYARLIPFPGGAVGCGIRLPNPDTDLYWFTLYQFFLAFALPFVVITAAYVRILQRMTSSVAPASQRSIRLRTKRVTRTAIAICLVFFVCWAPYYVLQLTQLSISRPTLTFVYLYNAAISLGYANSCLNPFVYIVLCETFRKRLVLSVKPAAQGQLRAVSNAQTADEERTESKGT
Sequence of Beta-galactosidase (Q8VNN2 whole entry): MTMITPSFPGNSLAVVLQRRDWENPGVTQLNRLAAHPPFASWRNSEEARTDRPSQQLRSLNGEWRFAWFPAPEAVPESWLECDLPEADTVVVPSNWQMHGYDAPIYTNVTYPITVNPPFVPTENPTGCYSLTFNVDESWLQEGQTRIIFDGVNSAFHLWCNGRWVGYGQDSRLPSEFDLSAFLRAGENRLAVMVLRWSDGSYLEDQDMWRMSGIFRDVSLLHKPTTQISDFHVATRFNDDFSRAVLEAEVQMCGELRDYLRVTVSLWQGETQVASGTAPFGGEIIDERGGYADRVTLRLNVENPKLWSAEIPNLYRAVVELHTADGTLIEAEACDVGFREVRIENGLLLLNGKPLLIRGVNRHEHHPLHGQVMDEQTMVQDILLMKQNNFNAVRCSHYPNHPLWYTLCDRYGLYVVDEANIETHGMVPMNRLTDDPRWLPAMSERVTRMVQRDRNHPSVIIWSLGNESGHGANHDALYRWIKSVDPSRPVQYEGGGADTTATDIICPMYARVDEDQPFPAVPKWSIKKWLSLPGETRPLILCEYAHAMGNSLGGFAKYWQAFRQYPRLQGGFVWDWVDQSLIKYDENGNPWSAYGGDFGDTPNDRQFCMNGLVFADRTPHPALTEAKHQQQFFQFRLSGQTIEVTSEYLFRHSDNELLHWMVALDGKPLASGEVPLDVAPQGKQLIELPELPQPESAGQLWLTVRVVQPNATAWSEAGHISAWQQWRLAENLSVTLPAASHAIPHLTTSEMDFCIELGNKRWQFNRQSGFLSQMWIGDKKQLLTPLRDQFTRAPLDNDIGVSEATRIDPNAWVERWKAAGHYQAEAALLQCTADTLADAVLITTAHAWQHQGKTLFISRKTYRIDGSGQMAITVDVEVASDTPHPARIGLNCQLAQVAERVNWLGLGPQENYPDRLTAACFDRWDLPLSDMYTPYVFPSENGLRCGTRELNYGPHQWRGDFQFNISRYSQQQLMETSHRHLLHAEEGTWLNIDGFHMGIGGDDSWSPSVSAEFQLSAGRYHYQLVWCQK

## CS(=O)(=O)/C(C#N)=C/c1cccn1S(=O)(=O)c1ccc([N+](=O)[O-])cc1
[1]
  IC50: > 50 µM (inactive)

## O=C(C1CCCCN1Cc1ccc2ccccc2c1)N1CCN(c2ccc([N+](=O)[O-])cc2)CC1 (centres undefined)
[2]
  IC50: 3.1 µM (active)
[3]
  IC50: 4.1 µM (active)

## N#C/C(=C\c1cccn1S(=O)(=O)c1ccccc1)S(=O)(=O)c1ccc(F)cc1
[1]
  IC50: > 50 µM (inactive)

## Cc1c(Cc2ccccc2)sc(/N=C/c2c(O)ccc3ccccc23)c1C(N)=O
Caspase-3
  EC50: > 85.3 µM (inactive)
[4]
  EC50: > 195 µM (not active)
Caspase-7
  EC50: > 85.3 µM (inactive)

## c1ccc(CSC2=NNC(c3ccccn3)S2)cc1 (centres undefined)
[5]
  EC50: 0.799 µM (active)
Streptokinase A
  EC50: > 150 µM (not active)
[6]
  EC50: 12.4 µM (not active)
Beta-galactosidase
  EC50: > 31.5 µM (inactive)
[7]
  IC50: > 32 µM
Cells [8]
  EC50: 66.9 µM (active)
Cells [9]
  EC50: 1.73 µM (active)
[10]
  EC50: < 0.1 µM (active)
[11]
  EC50: > 60 µM (not active)
[12]
  IC50: > 31.5 µM (inactive)
Streptococcus
  EC50: > 150 µM (not active)
Cells [13]
  EC50: > 350 µM (not active)

From ChEMBL document CHEMBL1201862, “PubChem BioAssay data set” (2004)
